The source of these data is US8685953B2, “Linear and cyclic guanidine derivatives, method of preparation and uses thereof” (Universita Degli Studi Di Siena, priority 2008, dated 2014).

The structures appear in SMILES notation. ≈ marks a conversion by molar mass, not a printed value. Where a name gives a salt, the structure may show the parent alone. Read-outs that look alike come from different tables or passages of the source.

What all share (assay): MIC determination by AFST-EUCAST standard methodology
In test [1] the test system is C. parapsilosis ATCC 34136. The class given is cell-based. The conditions noted are these: visually and spectrophotometrically, read-out: Antifungal activity, expressed as MIC50. The method, then: (§1) Determination of MICs by AFST-EUCAST Standard Methodology
(§2) Assay medium. The assay medium was RPMI […] without NaHCO3 and with L-glutamine (Sigma Aldrich, Italy), buffered at pH 7.0 with 0.165 M morpholinepropanesulphonic acid (Sigma Aldrich, Italy) and supplemented with 2% (w/v) glucose. The medium, prepared as double-strength solution, was sterilized by filtration and diluted 1:2 (v/v) with the fungal inoculum prepared in sterile distilled water.
(§3) The yeast isolates were grown on Sabouraud dextrose agar (Oxoid, Madrid, Spain) for 48 h at 37° C. before testing. Suspensions were prepared by combining five distinct colonies of each culture of >1 mm diameter. A spectrophotometric procedure for inoculum preparation was used. The final inoculum suspension, prepared in sterile distilled water, contained between 0.5·10^5 and 2.5·10^5 cfu/mL.
(§4) Stock solutions of test compounds were prepared in 100% dimethyl sulfoxide. Stock solutions were prepared as 100× concentration relative to the highest concentration in the antifungal activity test, and frozen at −70° C. until used.
(§5) Sterile plastic micro titration plates containing flat-bottomed wells were used. The plates contained serial dilution of the antifungal agents with a volume of assay medium of 100 μL/well. Two drug-free medium wells were used as sterility and growth controls. The trays were inoculated with 100 μL/well of the final inoculum, with the exception of sterility control wells. The range of concentrations tested for each drug was 1.25-80 μM. The microtitration plates were incubated at 37° C. for 24 h. The minimal inhibitory concentrations (MICs) were determined at 24 h both visually and spectrophotometrically.
(§6) By visual endpoint determination, MICs were determined according to a S-1-R scale, with S (susceptible) indicating an optical clear culture, I (intermediate susceptibility) indicating a slightly hazy culture, and R (resistant) indicating no reduction in turbidity. The MIC50 was defined as the lowest concentration of a drug which correspond to a S culture.
(§7) Microtitration plates were stirred using a microtitration plate shaker before reading to ensure uniform turbidity. MICs were obtained by measuring the absorbance at 450 nm with a microtitration plate reader. The value of the blank was subtracted from reading of the rest of the wells. Two endpoints were defined for each antifungal agent tested, with MIC80 indicating the lowest drug concentration resulting in a reduction of growth of 80% or more (determined spectrophotometrically) compared with the growth of the control, and MIC50 indicating the lowest drug concentration resulting in a reduction in growth of 50% (determined spectrophotometrically) compared with the growth of the control. The MIC50 was also defined as the spectrophotometric endpoint.

The next test relates to C. parapsilosis 81E. The class given is cell-based. To be noted: 24 h, visually and spectrophotometrically, read-out: Antifungal activity, expressed as MIC50. Here is the method: as §1, §2, §3, §4, §5, §6, §7
A further test has as its system C. tropicalis 86E. The class given is cell-based. The conditions noted are these: 24 h, visually and spectrophotometrically, read-out: Antifungal activity, expressed as MIC50. The method, then: as §1, §2, §3, §4, §5, §6, §7
Another test deals with C. glabrata 70E. It counts as cell-based. To be noted: C. glabrata 70E, 24 h, visually and spectrophotometrically, read-out: Antifungal activity, expressed as MIC50. Here is the method:
as §1, §2, §3, §4, §5, §6, §7

A further test has as its system C. parapsilosis 64E. The class given is cell-based. To be noted: 24 h, visually and spectrophotometrically, read-out: Antifungal activity, expressed as MIC50. Here is the method:
as §1, §2, §3, §4, §5, §6, §7

The next test relates to C. krusei 193T. The class given is cell-based. The conditions noted are these: 24 h, visually and spectrophotometrically, read-out: Antifungal activity, expressed as MIC50. Here is the method: as §1, §2, §3, §4, §5, §6, §7
The test system of a further test is C. krusei ATCC 14243. The class given is cell-based. To be noted: visually and spectrophotometrically, read-out: Antifungal activity, expressed as MIC50. Here is the method:
as §1, §2, §3, §4, §5, §6, §7

Another test has as its system C. albicans ATCC 60193. The class given is cell-based, Candida albicans. The conditions noted are these: visually and spectrophotometrically, read-out: Antifungal activity, expressed as MIC50. Here is the method: as §1, §2, §3, §4, §5, §6, §7
The test system of the next test is C. albicans 4T. The class given is cell-based, Candida albicans. To be noted: 24 h, visually and spectrophotometrically; for MIC50: read-out: Antifungal activity, expressed as MIC50. The method, then:
as §1, §2, §3, §4, §5, §6, §7

The next test concerns C. albicans 53T. The class given is cell-based, Candida albicans. The conditions noted are these: 24 h, visually and spectrophotometrically, read-out: Antifungal activity, expressed as MIC50. Here is the method: as §1, §2, §3, §4, §5, §6, §7
The next test relates to C. albicans 15T. It counts as cell-based, Candida albicans. The conditions noted are these: 24 h, visually and spectrophotometrically, read-out: Antifungal activity, expressed as MIC50. The method, then: as §1, §2, §3, §4, §5, §6, §7
Setting [2] is: Lodderomyces parapsilosis, ATCC34136, 24 h.
Setting [3] is: Pichia kudriavzevii, ATCC14243, 24 h.
Where [4] appears, read: Candida albicans, ATCC60193, 24 h.

Broadly, the MIC50 is the lowest concentration that inhibits either 50% of growth or 50% of the strains tested, depending on the study. As for `C=C(C)CNC(=N)NCCCCCCCCN1CCCCCCCCNC(=N)NC1=O` [Compound 13e], the MIC50 in test [1] (24 h) is greater than 80 µM; in the test with C. parapsilosis 81E, greater than 80 µM; with C. tropicalis 86E, 40 µM (≈ 17.4 µg/mL); with C. glabrata 70E, 80 µM (≈ 34.9 µg/mL); in the test with C. parapsilosis 64E, greater than 80 µM; in the test with C. krusei 193T it was 80 µM (≈ 34.9 µg/mL). Moreover, the MIC50 in the test on C. krusei ATCC 14243 (24 h) is reported as 40 µM (≈ 17.4 µg/mL); with C. albicans ATCC 60193 (24 h), 20 µM (≈ 8.71 µg/mL); in the test on C. albicans 4T, 40 µM (≈ 17.4 µg/mL); in the test on C. albicans 53T, 40 µM (≈ 17.4 µg/mL); with C. albicans 15T, 20 µM (≈ 8.71 µg/mL).

For the compound `CC(C)=CCNC(=N)NCCCCCCCCN1CCCCCCCCNC(=N)NC1=O` [Compound 13f], the MIC50 in test [1] (24 h) was greater than 80 µM; in the test with C. parapsilosis 81E, 40 µM (≈ 18 µg/mL); with C. tropicalis 86E, 20 µM (≈ 8.99 µg/mL); in the test on C. glabrata 70E it was 80 µM (≈ 36 µg/mL); with C. parapsilosis 64E, greater than 80 µM; in the test on C. krusei 193T, 20 µM (≈ 8.99 µg/mL). In addition, the MIC50 amounted to 10 µM (≈ 4.5 µg/mL) in the test with C. krusei ATCC 14243 (24 h); 40 µM (≈ 18 µg/mL) in the test on C. albicans ATCC 60193 (24 h); 20 µM (≈ 8.99 µg/mL) in the test on C. albicans 4T; 20 µM (≈ 8.99 µg/mL) in the test with C. albicans 53T; 20 µM (≈ 8.99 µg/mL) in the test on C. albicans 15T.

Consider `N=C(NCCCCCCCCN1CCCCCCCCNC(=N)NC1=O)NCc1ccccc1` [Compound 15a, 1-[benzyl]-3-[8-(4-imino-2-oxo-1,3,5-triazacyclotridec-1-yl)octyl]guanidine tri trifluoroacetate], for which the MIC50 was 80 µM in test [1] (setting [2]); 20 µM in the test on C. parapsilosis 81E (Lodderomyces parapsilosis); 2.5 µM in the test with C. tropicalis 86E (Candida tropicalis); 40 µM with C. glabrata 70E (Nakaseomyces glabratus); 20 µM in the test with C. parapsilosis 64E (Lodderomyces parapsilosis); 10 µM with C. krusei 193T (Pichia kudriavzevii). For the same compound, the MIC50 amounted to 20 µM in the test with C. krusei ATCC 14243 (setting [3]); 2.5 µM in the test with C. albicans ATCC 60193 (setting [4]); 2.5 µM in the test with C. albicans 4T (Candida albicans); 2.5 µM in the test on C. albicans 53T (Candida albicans); 5 µM in the test with C. albicans 15T (Candida albicans).

As for `C#CCNC(=N)NCCCCCCCCN1CCCCCCCCNC(=N)NC1=O.O=C(O)C(F)(F)F.O=C(O)C(F)(F)F.O=C(O)C(F)(F)F` [Compound 15b, 1-[propargyl]-3-[8-(4-imino-2-oxo-1,3,5-triazacyclotridec-1-yl)octyl]guanidine tri trifluoroacetate], the MIC50 in [1] (setting [2]) was 40 µM; in the test on C. parapsilosis 81E (Lodderomyces parapsilosis) it was 80 µM; with C. tropicalis 86E (Candida tropicalis) it was 5 µM; in the test on C. glabrata 70E (Nakaseomyces glabratus), 80 µM; with C. parapsilosis 64E (Lodderomyces parapsilosis), 40 µM; with C. krusei 193T (Pichia kudriavzevii) it was 40 µM. The MIC50 in the test with C. krusei ATCC 14243 (setting [3]) was 80 µM; in the test on C. albicans ATCC 60193 (setting [4]), 2.5 µM; with C. albicans 4T (Candida albicans), 80 µM; with C. albicans 53T (Candida albicans), 5 µM; in the test on C. albicans 15T (Candida albicans), 2.5 µM. The “Antifungal activity, expressed as MIC50” value with C. albicans 4T was “resistant”.

For `C=C(C)CNC(=N)NCCCCCCCCN1CCCCCCCCNC(=N)NC1=O` [Compound 15d, 1[β-methylallyl]-3-[8-(4-imino-2-oxo-1,3,5-triazacyclotridec-1-yl)octyl]guanidine tri trifluoroacetate], the MIC50 in test [1] (setting [2]) was greater than 80 µM; in the test on C. parapsilosis 81E (Lodderomyces parapsilosis), greater than 80 µM; in the test on C. tropicalis 86E (Candida tropicalis), 40 µM; with C. glabrata 70E (Nakaseomyces glabratus), 80 µM; with C. parapsilosis 64E (Lodderomyces parapsilosis), greater than 80 µM; in the test on C. krusei 193T (Pichia kudriavzevii), 80 µM. Besides, the MIC50 is 40 µM in the test on C. krusei ATCC 14243 (setting [3]); 20 µM in the test on C. albicans ATCC 60193 (setting [4]); 40 µM in the test with C. albicans 4T (Candida albicans); 40 µM in the test with C. albicans 53T (Candida albicans); 20 µM with C. albicans 15T (Candida albicans).

As for `OC(Cn1cncn1)(Cn1cncn1)c1ccc(F)cc1F` [F, fluconazole, reference compound], the MIC50 came out at 6.5 µM (≈ 1.99 µg/mL) in test [1] (setting [2]); 13 µM (≈ 3.98 µg/mL) with C. parapsilosis 81E (Lodderomyces parapsilosis); 52 µM (≈ 15.9 µg/mL) in the test with C. tropicalis 86E (Candida tropicalis); 209 µM (≈ 64 µg/mL) with C. glabrata 70E (Nakaseomyces glabratus); 32 µM (≈ 9.8 µg/mL) in the test with C. parapsilosis 64E (Lodderomyces parapsilosis); 418 µM (≈ 128 µg/mL) in the test with C. krusei 193T (Pichia kudriavzevii). The MIC50 with C. krusei ATCC 14243 (setting [3]) was 209 µM (≈ 64 µg/mL); in the test with C. albicans ATCC 60193 (setting [4]), 0.8 µM (≈ 0.245 µg/mL); in the test with C. albicans 4T (Candida albicans), 209 µM (≈ 64 µg/mL); with C. albicans 53T (Candida albicans) it was 418 µM (≈ 128 µg/mL); in the test on C. albicans 15T (Candida albicans), 209 µM (≈ 64 µg/mL).
